Reference: patent US20260132123A1, “ABAD INHIBITOR COMPOUNDS” (UNIVERSITY COURT OF THE UNIVERSITY OF ST ANDREWS, priority 2021, published 2026)
Like-named read-outs stand apart in the source and are kept apart here.

What was measured:
17β-HSD10 [1] = target: T1, 17β-HSD10 (Homo sapiens, UniProt Q99714); assay: Mechanism of action against the substrates NADH and AcetoAcetyl CoA; assay type: biochemical
T1 construct: Histev (histidine tag with TEV site) (N, cleaved yes); made in house; host or cells: E. coli BL21-CodonPlus
T1 sequence (Q99714 1-261): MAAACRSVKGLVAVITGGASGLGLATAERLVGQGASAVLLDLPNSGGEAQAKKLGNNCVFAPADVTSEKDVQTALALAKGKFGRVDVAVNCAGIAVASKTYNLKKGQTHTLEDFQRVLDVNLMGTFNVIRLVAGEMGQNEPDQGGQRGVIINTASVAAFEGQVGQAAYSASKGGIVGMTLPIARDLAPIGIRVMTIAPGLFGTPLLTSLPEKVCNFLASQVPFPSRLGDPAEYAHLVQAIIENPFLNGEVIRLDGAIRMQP
Protocol: To determine the kinetics for acetoacetyl-CoA and the effect of 17β-HSD10 concentration upon reaction rate, a matrix titration experiment was set up. Previously determined conditions were used with a fixed concentration of 700 μM NADH and a starting concentration of up to 200 μM acetoacetyl-CoA. Doubling dilutions of acetoacetyl-CoA were then coupled with doubling dilutions of 17β-HSD10, which started with a maximum concentration of 40 nM. Data collected from the experiment was analysed using a standard template, from which reaction progress curves were analysed to calculate initial velocities and obtain Km values using the Michaelis-Menten equation (XLFit, ID Business Solutions).
To determine the kinetics for NADH and the effect of 17β-HSD10 concentration upon reaction rate a matrix titration experiment was set up. Previously determined conditions (Aitken et al. 2017, supra) were used, 120 μM acetoacetate and a starting concentration of up to 1000 μM NADH. Doubling dilutions of NADH were then coupled with doubling dilutions of 17β-HSD10, which started with a maximum concentration of 40 nM. Data were analysed as described previously (Aitken et al. 2017, supra).
Two compounds, ESC1002033 and ESC1002082, representative of the two different clusters were investigated for their mechanism of action against the substrates, NADH and AcetoAcetyl CoA (AcAc). The ESC inhibitors were tested as 12-point 1 in 1.5 dilution series with a maximal concentration of 2.5 μM.

17β-HSD10 [2] = target: T1, 17β-HSD10; assay: 17β-HSD10 (ABAD) enzyme inhibition assay, NADH oxidation read at 340 nm (primary screen and dose response); assay type: biochemical; conditions: for EC50 / Max. Effect (%) / Hill Slope / Max. Fit / Min. Fit: recombinant 17βHSD10 enzyme assay; for Hill Slope / Max. Fit / Min. Fit: curve fit
How it was run: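 Tag-cleaved recombinant human 17β-HSD10 (2.5 nM) preincubated 15 min with compound in Tris pH 7.4, NaCl, DTT, Tween, BSA (catalase in some runs), then 100 μM acetoacetyl-CoA and NADH added. NADH oxidation by A340 fall: 35 min endpoint for screening at 10 μM; continuous 45 min for dose response.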

[3] = Mouse hepatocyte stability; assay type: in vitro ADME; set-up: k: unit not given here; conditions: for Heps Category: hepatocyte metabolism category, mouse; for Cl / half-life / k: mouse hepatocytes; for Cl: clearance; for k: k=absorption rate constant (so in the source)
Source text: (§1) Table 5: Initial mouse hepatocyte stability and plasma protein binding experiments were undertaken on some of the best exemplars from the representative series with AG18051 a previously published 17β-HSD10 inhibitor (C. R. Kissinger et al., J. Mol. Biol., 342 (2004), p. 943; Lim, Y.-A., Grimm, A., Giese, M. PLoS ONE (2011), 6, e28887.) Ref: shown for comparison. Where k=absorption rate constant Cl=clearance, T1/2=half-life, Heps=hepatocyte metabolism, PPB=plasma protein binding.

[4] = Mouse plasma protein binding; assay type: in vitro ADME
Source text: as §1

mtsABAD HEK293 cells [5] = assay: Lactate dehydrogenase (LDH) cytotoxicity assay; assay type: cell-based, human; conditions: 50 μM compound
mtsABAD HEK293 cells [6] = assay: Alamar Blue cell viability assay; assay type: cell-based, human; conditions: 50 μM compound
[7] = Table 5, read-out: Mean ABAD pIC50 (converted)

Row | Compound | EC50 (17β-HSD10 [2]) [nM] | Max. Effect (%) (17β-HSD10 [2]) | Hill Slope (17β-HSD10 [2]) | Max. Fit (17β-HSD10 [2]) | Min. Fit (17β-HSD10 [2]) | Heps Category [3] | Cl [3] [ml/minute/g liver] | k [3] | LDH % Toxicity (50 μM Dose) (mtsABAD HEK293 cells [5]) [%] | Alamar Blue % Viability (50 μM Dose) (mtsABAD HEK293 cells [6]) [%] | further results
1 | COc1ccc(-c2ccccc2C2CCCN2C(=O)c2sccc2C)cn1 (racemic) [ESC1002082, [2-[2-(6-methoxy-3-pyridyl)phenyl]pyrrolidin-1-yl]-(3-methyl-2-thienyl)methanone] | 794 | 96 | 1.1 | 98 | 0 |  |  |  |  |  | mode of binding with respect to NADH (17β-HSD10 [1]; AcAc in excess at 800 μM): non-competitively; mode of binding with respect to AcAc (17β-HSD10 [1]; excess of 100 μM NADH): competitively; 17β-HSD10 pIC50 (17β-HSD10 [2]; 17β-HSD10 dose response / inhibition assay): 6.1; IC50 (17β-HSD10 [2]; primary screening, resynthesized HTS hit compounds, read-out: ABAD plC50 (converted)): 794 nM
2 | Cc1ccsc1C(=O)N(CC(C)C)c1cccc(N(C)Cc2c[nH]cn2)c1 [ESC1002597] | 398 | 100 | 1.4 | 96 | 4 | Mod | 7.2 | 0.02 |  |  | IC50 (17β-HSD10 [2]; [7]): 398 nM; half-life [3]: 46.2 min
3 | COc1cccc(-c2ccccc2[C@@H]2CCCN2C(=O)c2[nH]ncc2Cl)c1 (single isomer, unassigned) [ESC1002757] | 115 | 94 | 0.89 | 95 | −10 | High | 62.4 | 0.13 |  |  | IC50 (17β-HSD10 [2]; [7]): 105 nM; half-life [3]: 5.33 min
4 | Cc1ccc(C(=O)N(CC(C)C)c2cccc(N(C)Cc3c[nH]cn3)c2)c(F)c1 [ESC1002575, 2-fluoro-N-[3-[1H-imidazol-4-ylmethyl(methyl)amino]phenyl]-N-isobutyl-4-methyl-benzam] | 269 | 102 | 1.3 | 101 | 10 | Mod | 5.8 | 0.012 |  |  | Mean ABAD pIC50 (17β-HSD10 [2]; Table 5): 6.57; Mouse PPB (% free) [4]: 7.6 % free
5 | CN(C)CCN(C(=O)c1ccccc1F)c1cccc(N(C)Cc2c[nH]cn2)c1 [ESC1002334, N-[2-(dimethylamino)ethyl]-2-fluoro-N-[3-[1H-imidazol-4-ylmethyl(methyl)amino]phenyl]benzamide] | > 20000 | 23 |  |  |  |  |  |  | 5.17 | 92.96 | 
6 | Cc1ccsc1C(=O)N1CCC[C@H]1c1ccccc1-c1cccc(Cl)c1 (single isomer, unassigned) [ESC1002769] | 191 | 94 | 1 | 93 | −3 | High | 71.5 | 0.15 |  |  | IC50 (17β-HSD10 [2]; [7]): 170 nM; half-life [3]: 4.65 min
7 | Cc1ccsc1C(=O)N1CCC[C@H]1c1ccccc1-c1ccc(C(=O)N(C)C)cc1 [ESC1002317] | 912 | 96 | 1 | 99 | 0 |  |  |  | 4.58 | 83.39 | 
8 | CC(C)CN(C(=O)c1ccccc1F)c1cccc(N(C)Cc2ccccn2)c1 [ESC1002209] | 5750 | 80 | 0.98 | 104 | 0 |  |  |  | 5.698 | 80.514 | 
9 | COc1ccc(-c2ccccc2[C@H]2CCCN2C(=O)c2sccc2C)cn1 (single isomer, unassigned) [ESC1002162] | 490 | 98 | 1 | 99 | 0 |  |  |  | 6.843 | 83.498 | IC50 (17β-HSD10 [2]; 17β-HSD10 dose response / inhibition assay, read-out: 17β-HSD10 pIC50 (converted)): 490 nM
10 | CC(C)CN(C(=O)Cc1ccccc1)c1cccc(N(C)Cc2cnc[nH]2)c1 [ESC1002167, N-[3-[1H-imidazol-5-ylmethyl(methyl)amino]phenyl]-N-isobutyl-2-phenyl-acetamide] | 12600 | 62 | 1 | 100 | 0 |  |  |  | 4.492 | 79.269 | 
11 | Cc1ncc(CN(C)c2cccc(N(CC(C)C)C(=O)c3ccccc3F)c2)[nH]1 [ESC1002204] | 398 | 97 | 1.2 | 98 | 0 | High | 54 | 0.11 |  |  | LDH % Toxicity (50 μM Dose) (mtsABAD HEK293 cells [5]; listed as ESC1002204-01): 5.048%; 17β-HSD10 / ABAD activity in words (SAR discussion) (17β-HSD10 [2]): only slightly reduced ABAD inhibition levels; IC50 (17β-HSD10 [2]; [7]): 398 nM; Alamar Blue % Viability (50 μM Dose) (mtsABAD HEK293 cells [6]; listed as ESC1002204-01): 88.836%; half-life [3]: 6.16 min
12 | COc1ccc(C(=O)N(CC(C)C)c2cccc(N(C)Cc3cnc[nH]3)c2)cc1 [ESC1002182, N-[3-[1H-imidazol-5-ylmethyl(methyl)amino]phenyl]-N-isobutyl-4-methoxy-benzamide] | 331 | 99 | 0.8 | 103 | 0 |  |  |  | 4.733 | 87.643 | 
13 | Cc1ccsc1C(=O)N1CCC[C@H]1c1ccccc1-c1cccc(C(F)(F)F)c1 [ESC1002320] | 603 | 99 | 0.91 | 101 | −1 |  |  |  | 5.12 | 83.37 | 
14 | CC(C)CN(C(=O)c1ccccc1F)c1cccc(N(C)Cc2ccn[nH]2)c1 [ESC1002206] |  | 79 | 0.93 | 107 | 0 |  |  |  |  |  | LDH % Toxicity (50 μM Dose) (mtsABAD HEK293 cells [5]; listed as ESC1002206-01): 5.918%; Alamar Blue % Viability (50 μM Dose) (mtsABAD HEK293 cells [6]; listed as ESC1002206-01): 95.609%
